What was measured:
CYP17 = target: T1, CYP17 (Rattus norvegicus, UniProt P11715); test: Inhibition of CYP17 (pooled rat testicular microsomes); format: biochemical
T1 construct: from tissue; host or cells: pooled rat testicular microsomes
T1 sequence (P11715 1-507): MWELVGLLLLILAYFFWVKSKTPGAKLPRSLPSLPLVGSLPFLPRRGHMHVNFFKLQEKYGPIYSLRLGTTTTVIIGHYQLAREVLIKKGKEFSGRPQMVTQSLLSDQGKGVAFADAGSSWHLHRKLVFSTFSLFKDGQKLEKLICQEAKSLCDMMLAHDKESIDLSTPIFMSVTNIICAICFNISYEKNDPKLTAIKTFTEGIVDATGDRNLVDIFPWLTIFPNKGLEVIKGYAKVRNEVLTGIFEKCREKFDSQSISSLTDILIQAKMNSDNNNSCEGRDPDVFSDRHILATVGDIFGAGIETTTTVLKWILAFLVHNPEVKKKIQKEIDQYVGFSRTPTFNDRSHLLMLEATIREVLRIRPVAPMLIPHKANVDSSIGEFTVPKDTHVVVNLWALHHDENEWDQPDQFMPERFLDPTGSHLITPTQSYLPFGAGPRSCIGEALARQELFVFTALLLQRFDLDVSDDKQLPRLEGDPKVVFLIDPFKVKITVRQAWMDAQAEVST
Protocol: CYP17 activity was assayed according to the following procedure. […] The individual test compound and isozyme inhibitor solutions were then diluted 20-fold with deionized water (50:950 v/v) to concentrations of 135, 27, 4.5, 0.9, 0.15, 0.03 and 0.005 μM. The percent of organic solvent attributable to the test compound or inhibitor mixture in the final reaction mixture is 1%. Pooled rat testicular microsome suspension (20 mg/mL) was diluted with phosphate buffer to obtain a 1.25 mg/mL suspension. A solution of NADPH was prepared in phosphate buffer at a concentration of 2.5×. A stock solution of the substrate was prepared in DMSO:MeCN (50:50 v/v), mixed, and diluted in phosphate buffer to obtain a single solution containing the substrate at 5 μM. The percent of organic solvent attributable to substrate mixture in the final reaction mixture is 1%. Substrate solution and microsome suspension were combined in a 1:1 volume ratio, mixed, and distributed to reaction wells of a PCR plate. Individual test compound or the inhibitor solution at each concentration was added to the wells and mixed by repetitive aspirate/dispense cycles. For active controls, blank test compound diluent was added in place of test compound solution. Reaction mixtures were allowed to equilibrate at 37° C. for approximately two minutes before adding NADPH solution to initiate reaction, followed by pipette mixing of reaction mixture.

CYP2C9 = CYP2C9 (Homo sapiens, UniProt P11712); test: Inhibition of liver cytochrome P450 enzymes (pooled human liver microsomes), CYP2C9
Chain of CYP2C9 (P11712 whole entry): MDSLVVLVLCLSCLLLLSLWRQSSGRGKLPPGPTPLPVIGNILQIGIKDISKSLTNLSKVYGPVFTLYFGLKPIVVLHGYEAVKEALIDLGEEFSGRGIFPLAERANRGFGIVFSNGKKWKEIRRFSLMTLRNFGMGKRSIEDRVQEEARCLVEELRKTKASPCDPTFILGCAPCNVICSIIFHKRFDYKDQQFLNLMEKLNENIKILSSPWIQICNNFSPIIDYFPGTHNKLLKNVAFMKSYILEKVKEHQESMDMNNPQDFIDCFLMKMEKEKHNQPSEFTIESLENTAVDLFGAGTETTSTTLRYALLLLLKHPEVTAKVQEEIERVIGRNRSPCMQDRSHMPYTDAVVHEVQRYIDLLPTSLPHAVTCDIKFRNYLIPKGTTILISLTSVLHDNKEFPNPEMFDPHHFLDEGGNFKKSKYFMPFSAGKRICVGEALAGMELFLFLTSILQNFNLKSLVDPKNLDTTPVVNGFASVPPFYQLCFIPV

CYP3A4 = CYP3A4 (Homo sapiens, UniProt P08684); test: Inhibition of liver cytochrome P450 enzymes (pooled human liver microsomes), CYP3A4
Chain of CYP3A4 (P08684 whole entry): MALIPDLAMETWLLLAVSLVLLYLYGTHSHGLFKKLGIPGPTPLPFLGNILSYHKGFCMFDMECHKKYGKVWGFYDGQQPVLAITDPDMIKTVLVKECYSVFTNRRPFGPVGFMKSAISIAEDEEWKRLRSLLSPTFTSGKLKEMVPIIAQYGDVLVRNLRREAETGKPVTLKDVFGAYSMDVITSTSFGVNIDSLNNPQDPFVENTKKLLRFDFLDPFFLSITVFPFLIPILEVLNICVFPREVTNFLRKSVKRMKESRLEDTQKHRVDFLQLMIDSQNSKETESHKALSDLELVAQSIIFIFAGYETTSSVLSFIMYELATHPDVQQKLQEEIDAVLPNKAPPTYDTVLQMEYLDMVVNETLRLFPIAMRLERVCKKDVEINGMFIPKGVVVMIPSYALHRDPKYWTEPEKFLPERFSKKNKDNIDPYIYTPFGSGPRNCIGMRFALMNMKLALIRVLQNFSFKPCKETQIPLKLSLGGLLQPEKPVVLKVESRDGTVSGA

CYP2C19 = CYP2C19 (Homo sapiens, UniProt P33261); test: Inhibition of liver cytochrome P450 enzymes (pooled human liver microsomes), CYP2C19
Chain of CYP2C19 (P33261 whole entry): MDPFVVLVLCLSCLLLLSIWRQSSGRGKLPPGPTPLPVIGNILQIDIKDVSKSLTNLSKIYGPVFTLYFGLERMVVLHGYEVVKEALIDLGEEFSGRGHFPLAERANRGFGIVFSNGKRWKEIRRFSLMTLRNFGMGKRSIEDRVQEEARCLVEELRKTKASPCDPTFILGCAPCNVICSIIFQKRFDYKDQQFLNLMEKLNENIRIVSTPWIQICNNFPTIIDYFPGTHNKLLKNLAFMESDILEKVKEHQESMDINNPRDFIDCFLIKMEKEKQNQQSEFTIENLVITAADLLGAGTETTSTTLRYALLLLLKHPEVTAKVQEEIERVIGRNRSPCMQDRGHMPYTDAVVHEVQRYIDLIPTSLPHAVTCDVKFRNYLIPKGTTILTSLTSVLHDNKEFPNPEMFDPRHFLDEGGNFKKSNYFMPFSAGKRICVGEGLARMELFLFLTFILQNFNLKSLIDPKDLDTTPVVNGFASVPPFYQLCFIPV

Row | Structure (SMILES) | IC50 (CYP17) | IC50 (CYP2C9) | IC50 (CYP3A4) | IC50 (CYP2C19)
1 | COc1cc2ccc(C(C(C)C)n3ccnn3)cc2cc1OC (centres unmarked) [Example 1, 1-(1-(6,7-dimethoxynaphthalen-2-yl)-2-methylpropyl)-1H-1,2,3-triazole] | 0.05 µM | 6.5 µM | 11 µM | 8.4 µM
2 | CC(C)C(c1ccc2cc(OCC(F)(F)F)c(OCC(F)(F)F)cc2c1)n1ccnn1 (centres unmarked) [Example 2, 1-(1-(6,7-bis(2,2,2-trifluoroethoxy)naphthalen-2-yl)-2-methylpropyl)-1H-1,2,3-triazole] | 0.48 µM | 2.9 µM | > 60 µM | 4.4 µM
3 | CC(C)C(c1ccc2cc(-c3ccc(F)cc3)ccc2n1)n1ccnn1 (centres unmarked) [Example 4, 6-(4-Fluorophenyl)-2-(2-methyl-1-(1H-1,2,3-triazol-1-yl)propyl)quinoline] | 0.042 µM | 24 µM | 84 µM | 31 µM

Continued by falling IC50 (CYP17), values first:

Row | IC50 (CYP17) | IC50 (CYP2C9) | IC50 (CYP3A4) | IC50 (CYP2C19) | Structure (SMILES)
4 | 0.4 µM | – | – | – | CC(=O)N1CCN(c2ccc(OCC3COC(Cn4ccnc4)(c4ccc(Cl)cc4Cl)O3)cc2)CC1 (centres unmarked) [Ketoconazole, ketoconazole, reference compound]
5 | 0.03 µM | 3.2 µM | 19 µM | 5 µM | CC(C)C(c1ccc2cc(OCC(F)(F)F)ccc2n1)n1ccnn1 (centres unmarked) [Example 3, 2-(2-Methyl-1-(1H-1,2,3-triazol-1-yl)propyl)-6-(2,2,2-trifluoroethoxy)quinoline]

Source: US8669274B2, “Metalloenzyme inhibitor compounds” (Viamet Pharmaceuticals, Inc., priority 2010, dated 2014)
